The source of these data is patent US12012403B2, “Aryl sulfonyl compounds as CCR6 inhibitors” (CHEMOCENTRYX, INC., priority 2021, dated 2024).

Molecules are shown by their SMILES. Where only a bound is given, the exact number is not on record here.

The assay addresses T1, human CCR6 (Homo sapiens, UniProt P51684).
T1 construct: expressed in transfected cells; host or cells: Ba/F3 cells (murine pro-B line), hCCR6-transfected, CMV promoter, sodium butyrate induction
T1 sequence (P51684 1-374): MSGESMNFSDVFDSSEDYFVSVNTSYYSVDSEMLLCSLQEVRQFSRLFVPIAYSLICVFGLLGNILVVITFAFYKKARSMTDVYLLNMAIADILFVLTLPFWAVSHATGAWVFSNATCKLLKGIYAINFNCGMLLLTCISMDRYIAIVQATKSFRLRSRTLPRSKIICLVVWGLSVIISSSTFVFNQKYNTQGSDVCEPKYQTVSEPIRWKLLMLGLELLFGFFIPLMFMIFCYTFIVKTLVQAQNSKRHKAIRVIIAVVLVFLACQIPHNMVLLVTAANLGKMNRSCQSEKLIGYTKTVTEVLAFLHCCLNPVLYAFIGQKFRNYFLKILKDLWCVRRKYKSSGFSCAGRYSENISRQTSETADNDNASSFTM
In words: Migration (chemotaxis) assay, hCCR6-transfected Ba/F3 cells toward CCL20. In kind it is cell-based. As to conditions: hCCR6-transfected Ba/F3 cells in human serum; recombinant human CCL20 10 nM; 37° C. 45 minutes; read-out: Potency (IC50 value in the migration assay). The procedure, abridged:
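Ba/F3 cells stably transfected with human CCR6 (CMV promoter), pre-induced 24 hr with sodium butyrate, suspended at 4 million/ml in human serum with test compound serially diluted from 10 μM final. Migration through 5-μm polycarbonate membrane toward 10 nM CCL20 (EC50) for 45 min at 37 °C; migrated cells quantified by CyQUANT fluorescence.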
Turning to `O=C1COc2cc(-c3ccc(S(=O)(=O)N4CCC(Nc5ccc(C(F)(F)F)cn5)CC4)cc3)ccc2N1` [Example 1.074], the IC50 was in the range of 0.005 to 0.1 µM.

In the case of `O=C1NCc2ncc(-c3ccc(S(=O)(=O)N4CCC(Nc5ccc(C(F)(F)F)cn5)CC4)cc3)cc21` [Example 1.010], the IC50 is 0.005 to 0.1 µM.

For the molecule `CC(=O)N1CCC2(CC1)C(=O)Nc1ccc(-c3ccc(S(=O)(=O)N4CCC(Nc5ccc(C(F)(F)F)cn5)CC4)cc3)cc12` [Example 1.026], the IC50 lay in the range of 0.005 to 0.1 µM.

Turning to `CC1(C)Oc2ccc(-c3ccc(S(=O)(=O)N4CCC(Nc5ccc(C(F)(F)F)cn5)CC4)cc3)cc2NC1=O` [Example 1.031], the IC50 lay in the range of 0.005 to 0.1 µM.

As for `O=C1N(CCO)c2ncc(-c3ccc(S(=O)(=O)N4CCC(Nc5ccc(C(F)(F)F)cn5)CC4)cc3)cc2C12CCOCC2` [Example 1.020], the IC50 was 0.005 to 0.1 µM.

In the case of `Nc1nc2ccc(-c3ccc(S(=O)(=O)N4CCC(Nc5ccc(C(F)(F)F)cn5)CC4)cc3)cc2o1` [Example 1.086], the IC50 is less than 0.005 µM.

Consider `O=S(=O)(c1ccc(-c2ccc3[nH]cnc3c2)cc1)N1CCC(Nc2ccc(C(F)(F)F)cn2)CC1` [Example 1.110], for which the IC50 was less than 0.005 µM.

With `O=C1NCCC12CCN(c1ccc(S(=O)(=O)N3CCC(Nc4ccc(C(F)(F)F)cn4)CC3)cc1)CC2` [Example 1.172], the IC50 is less than 0.005 µM.

Regarding `NC(=O)NCCC1CCN(c2ccc(S(=O)(=O)N3CCC(Nc4ccc(C(F)(F)F)cn4)CC3)cc2)CC1` [Example 1.125], the IC50 was 0.005 to 0.1 µM.

In the case of `N=[S@](=O)(c1ccc(-c2ccc3oc(N)nc3c2)cc1)N1CCC(Nc2ccc(C(F)(F)F)cc2)CC1` [Example 1.105], the IC50 is 0.005 to 0.1 µM.

For the molecule `N#Cc1c[nH]c2ccc(-c3ccc([S@](=N)(=O)N4CCC(Nc5ccc(C(F)(F)F)cn5)CC4)cc3)cc12` [Example 1.103], the IC50 lay in the range of 0.005 to 0.1 µM.

For the molecule `Cn1nc(N)c2cc(-c3ccc(S(=O)(=O)N4CCC(Nc5ccc(C(F)(F)F)cn5)CC4)cc3)ccc21` [Example 1.046], the IC50 was less than 0.005 µM.

For the molecule `NC(=O)N[C@H]1CCN(c2ccc(S(=O)(=O)N3CCC(Nc4ccc(C(F)(F)F)cn4)CC3)cc2)C1` [Example 1.190], the IC50 is 0.1 to 10 µM.

In the case of `Nc1nc2cc(-c3ccc(S(=O)(=O)N4CCC(Nc5ccc(C(F)(F)F)cn5)CC4)cc3)ccc2[nH]1` [Example 1.107], the IC50 fell in the range of 0.005 to 0.1 µM.

On to `Cn1nc(C#N)c2cc(-c3ccc(S(=O)(=O)N4CCC(Nc5ccc(C(F)(F)F)cn5)CC4)cc3)ccc21` [Example 1.091], for which the IC50 was less than 0.005 µM.

As for `NC(=O)c1ccc(-c2ccc(S(=O)(=O)N3CCC(Nc4ccc(C(F)(F)F)cn4)CC3)cc2)c2cc[nH]c12` [Example 1.061], the IC50 was in the range of 0.005 to 0.1 µM.

As to `O=S(=O)(c1ccc(N2[C@@H]3CC[C@H]2C[C@@H](O)C3)cc1)N1CCC(Nc2ccc(C(F)(F)F)cn2)CC1` [Example 1.180], the IC50 lay in the range of 0.005 to 0.1 µM.

As to `O=S1(=O)CCN(c2ccc(S(=O)(=O)N3CCC(Nc4ccc(C(F)(F)F)cn4)CC3)cc2)CC1` [Example 1.231], the IC50 fell in the range of 0.1 to 10 µM.

For the molecule `NC(=O)N1CCc2nc(-c3ccc(S(=O)(=O)N4CCC(Nc5ccc(C(F)(F)F)cn5)CC4)cc3)sc2C1` [Example 1.102], the IC50 was in the range of 0.1 to 10 µM.

As to `O=S(=O)(c1ccc(-c2cnc3[nH]ccc3c2)cc1)N1CCC(Nc2ccc(C(F)(F)F)cn2)CC1` [Example 1.089], the IC50 was less than 0.005 µM.

Take `NC(=O)C1CCN(c2ccc(S(=O)(=O)N3CCC(Nc4ccc(C(F)(F)F)cn4)CC3)cc2)CC1` [Example 1.228]: the IC50 lay within 0.005 to 0.1 µM.

With `O=C(CC1CCN(c2ccc(S(=O)(=O)N3CCC(Nc4ccc(C(F)(F)F)cn4)CC3)cc2)CC1)NCCO` [Example 1.133], the IC50 was in the range of 0.1 to 10 µM.

On to `O=C1COC2(CCN(c3ccc(S(=O)(=O)N4CCC(Nc5ccc(C(F)(F)F)cn5)CC4)cc3)CC2)CN1` [Example 1.147], for which the IC50 fell in the range of 0.005 to 0.1 µM.

`O=S(=O)(c1ccc(-c2cc3cc[nH]c3nc2F)cc1)N1CCC(Nc2ccc(C(F)(F)F)cn2)CC1` [Example 1.042]: the IC50 was in the range of 0.005 to 0.1 µM.

Turning to `NC(=O)C1CN(c2ccc(S(=O)(=O)N3CCC(Nc4ccc(C(F)(F)F)cn4)CC3)cc2)CCO1` (centres unmarked) [Example 1.202], the IC50 lay within 0.005 to 0.1 µM.

As to `CS(=O)(=O)NCCC1CCN(c2ccc(S(=O)(=O)N3CCC(Nc4ccc(C(F)(F)F)cn4)CC3)cc2)CC1` [Example 1.127], the IC50 was 0.005 to 0.1 µM.

For `Cn1nc(C(N)=O)c2cc(-c3ccc(S(=O)(=O)N4CCC(Nc5ccc(C(F)(F)F)cn5)CC4)cc3)ccc21` [Example 1.090], the IC50 is less than 0.005 µM.

In the case of `NC(=O)c1c[nH]c2ccc(-c3ccc(S(=O)(=O)N4CCC(Nc5ccc(C(F)(F)F)cn5)CC4)cc3)cc12` [Example 1.080], the IC50 was in the range of 0.005 to 0.1 µM.

As for `O=S(=O)(c1ccc(N2CCC[C@H](O)C2)cc1)N1CCC(Nc2ccc(C(F)(F)F)cn2)CC1` [Example 1.198], the IC50 fell in the range of 0.005 to 0.1 µM.

As to `O=S(=O)(c1ccc(N2CCCCC2)cc1)N1CCC(Nc2ccc(C(F)(F)F)cn2)CC1` [Example 1.235], the IC50 was 0.005 to 0.1 µM.

Regarding `O=S(=O)(c1ccc(N2CC3(CC(O)C3)C2)cc1)N1CCC(Nc2ccc(C(F)(F)F)cn2)CC1` [Example 1.187], the IC50 is 0.005 to 0.1 µM.

For `CS(=O)(=O)NC1CCN(c2ccc(S(=O)(=O)N3CCC(Nc4ccc(C(F)(F)F)cn4)CC3)cc2)CC1` [Example 1.206], the IC50 lay in the range of 0.005 to 0.1 µM.

Regarding `O=C1CC2(CCN(c3ccc(S(=O)(=O)N4CCC(Nc5ccc(C(F)(F)F)cn5)CC4)cc3)CC2)CC(=O)N1` [Example 1.152], the IC50 is less than 0.005 µM.

For the molecule `NC(=O)N1CCCC(c2ccc(S(=O)(=O)N3CCC(Nc4ccc(C(F)(F)F)cn4)CC3)cc2)C1` (centres unmarked) [Example 1.215], the IC50 fell in the range of 0.005 to 0.1 µM.

On to `O=C1Cc2cc(-c3ccc(S(=O)(=O)N4CCC(Nc5ccc(C(F)(F)F)cn5)CC4)cc3)cc(C(=O)O)c2N1` [Example 1.008], for which the IC50 was 0.1 to 10 µM.

As to `NCCC1CCN(c2ccc(S(=O)(=O)N3CCC(Nc4ccc(C(F)(F)F)cn4)CC3)cc2)CC1` [Example 1.132], the IC50 was 0.1 to 10 µM.

Regarding `O=S(=O)(c1ccc(-c2ccc3c(c2)CCC3)cc1)N1CCC(Nc2ccc(C(F)(F)F)cn2)CC1` [Example 1.120], the IC50 was in the range of 0.1 to 10 µM.

Turning to `O=S(=O)(c1ccc(N2CCC(O)CC2)c(F)c1)N1CCC(Nc2ccc(C(F)(F)F)cn2)CC1` [Example 1.208], the IC50 was 0.1 to 10 µM.

As for `CC(C)(C)OC(=O)NC1CCN(c2ccc(S(=O)(=O)N3CCC(Nc4ccc(C(F)(F)F)cn4)CC3)cc2)CC1` [Example 1.217], the IC50 fell in the range of 0.005 to 0.1 µM.

For the molecule `O=C1NCCc2nc(-c3ccc(S(=O)(=O)N4CCC(Nc5ccc(C(F)(F)F)cn5)CC4)cc3)sc21` [Example 1.048], the IC50 lay within 0.005 to 0.1 µM.

`NC(=O)CC1CCN(c2ccc(S(=O)(=O)N3CCC(Nc4ccc(C(F)(F)F)cn4)CC3)cc2)CC1` [Example 1.155]: the IC50 is less than 0.005 µM.

As for `O=C1NC(=O)N2CCN(c3ccc(S(=O)(=O)N4CCC(Nc5ccc(C(F)(F)F)cn5)CC4)cc3)CC12` (centres unmarked) [Example 1.177], the IC50 lay in the range of 0.005 to 0.1 µM.

As for `NC(=O)N1CCCN(c2ccc(S(=O)(=O)N3CCC(Nc4ccc(C(F)(F)F)cn4)CC3)cc2)CC1` [Example 1.203], the IC50 is 0.005 to 0.1 µM.

Take `O=S(=O)(c1ccc(-c2ccc3[nH]nc(C(F)(F)F)c3c2)cc1)N1CCC(Nc2ccc(C(F)(F)F)cn2)CC1` [Example 1.087]: the IC50 is 0.005 to 0.1 µM.

Turning to `O=c1[nH]ncc2cc(-c3ccc(S(=O)(=O)N4CCC(Nc5ccc(C(F)(F)F)cn5)CC4)cc3)ccc12` [Example 1.059], the IC50 was less than 0.005 µM.

Regarding `NC(=O)NC1CCN(c2ccc(S(=O)(=O)N3CCC(Nc4ccc(C(F)(F)F)cn4)CC3)cc2)CC1` [Example 1.205], the IC50 lay within 0.005 to 0.1 µM.

As to `O=S(=O)(c1ccc(N2CCOCC2)cc1)N1CCC(Nc2ccc(C(F)(F)F)cn2)CC1` [Example 1.129], the IC50 was in the range of 0.005 to 0.1 µM.

On to `O=S(=O)(c1ccc(C2CCCNC2)cc1)N1CCC(Nc2ccc(C(F)(F)F)cn2)CC1` (centres unmarked) [Example 1.225], for which the IC50 was 0.1 to 10 µM.

Consider `N#Cc1cc2cc(-c3ccc(S(=O)(=O)N4CCC(Nc5ccc(C(F)(F)F)cn5)CC4)cc3)ccc2[nH]1` [Example 1.113], for which the IC50 is 0.005 to 0.1 µM.

As to `O=S(=O)(c1ccc(N2CCC(O)(CO)CC2)cc1)N1CCC(Nc2ccc(C(F)(F)F)cn2)CC1` [Example 1.168], the IC50 was 0.005 to 0.1 µM.

Regarding `CNc1n[nH]c2ncc(-c3ccc(S(=O)(=O)N4CCC(Nc5ccc(C(F)(F)F)cn5)CC4)cc3)cc12` [Example 1.049], the IC50 was less than 0.005 µM.

In the case of `CC1(C)NC(=O)c2ncc(-c3ccc(S(=O)(=O)N4CCC(Nc5ccc(C(F)(F)F)cn5)CC4)cc3)cc21` [Example 1.009], the IC50 was less than 0.005 µM.

Take `N#Cc1cn(CCN)c2ncc(-c3ccc(S(=O)(=O)N4CCC(Nc5ccc(C(F)(F)F)cn5)CC4)cc3)cc12` [Example 1.013]: the IC50 lay in the range of 0.005 to 0.1 µM.

With `CS(=O)(=O)N1CCCN(c2ccc(S(=O)(=O)N3CCC(Nc4ccc(C(F)(F)F)cn4)CC3)cc2)CC1` [Example 1.199], the IC50 was in the range of 0.1 to 10 µM.

On to `O=c1[nH]c2ccc(-c3ccc(S(=O)(=O)N4CCC(Nc5ccc(C(F)(F)F)cn5)CC4)cc3)cc2o1` [Example 1.097], for which the IC50 is less than 0.005 µM.

In the case of `O=S(=O)(c1ccc(-c2ccc3c(c2)OCCO3)cc1)N1CCC(Nc2ccc(C(F)(F)F)cn2)CC1` [Example 1.032], the IC50 fell in the range of 0.1 to 10 µM.
